Assay results taken from paper PMC10600239, “Selective MCL-1 inhibitor ABBV-467 is efficacious in tumor models but is associated with cardiac troponin increases in patients” (Communications Medicine, 2023).

What was measured:
[1] = tested on: OPM-2 xenografts; assay: OPM-2 xenograft efficacy (tumor volume, body weight); assay type: in vivo, mouse; settings: 6.25 mg/kg IV once weekly for 3 weeks
Method: All animal studies were conducted in accordance with the guidelines approved by the Institutional Animal Care and Use Committees of AbbVie. The research protocol was approved by In Vivo Pharmacology at AbbVie prior to study initiation but was not publicly registered or disclosed. Female C.B-17 SCID-beige mice (AMO-1, OPM-2, NCI-H929, and OCI-AML2 xenografts) and female NSG mice (MV4-11-Red.Fluc systemic) were purchased from Charles River Laboratories (Wilmington, MA). Animals were housed in a light cycle-controlled room with HEPA filtration at 22 °C. Animals had nesting and climbing cage topper as the primary environmental enrichment. Animals were inoculated subcutaneously in the right flank with 5 × 10^6 (AMO-1, OPM-2, NCI-H929, and OCI-AML2) or intravenous (IV) with 5 × 10^6 (MV4-11-Red.Fluc). The inoculation volume (0.2 mL) comprised a 50:50 mixture of cells in growth media and Matrigel (BD Biosciences) for subcutaneous injections and 100% phosphate-buffered saline for IV administration. All cell lines used in this publication were authenticated using IDEXX for STR profiling as well as their IMPACT and human IMPACT panels for pathogen screening. Electronic calipers were used to measure the length and width of each tumor 2 to 3 times per week. Tumor volume was estimated by applying the following equation: volume = length × width^2/2. All groups remained blinded during measurements and dosing; only veterinary staff were aware of group identity. When tumors reached approximately 200 mm^3, mice were randomized by match and distributed into treatment and control groups. All xenograft trials were conducted using 5 to 10 mice per group, and all mice were ear tagged and monitored individually throughout the studies. Any animal with a tumor above 2000 mm^3 or 15% loss in body weight was euthanized and removed from the study. Tumor burden in the systemic MV4-11-Red.Fluc experiment was measured using an IVIS® spectrum from PerkinElmer by taking the total photon flux of the entire dorsal side of an individual mouse. Ten minutes prior to imaging, animals received intraperitoneally 0.2 mL of a 15-mg/mL solution of D-Luciferin (PerkinElmer, Catalog #122799) formulated in 100% phosphate-buffered saline. Animals were anesthetized using 3.5% isoflurane and maintained using 2%. Six days after inoculation, animals were imaged and randomized into vehicle and treatment groups at a total flux of ~1 × 10^8. A background control mouse that was tumor naive but received D-Luciferin was placed in the upper left corner of each image. The total flux from this animal was subtracted from the total flux of each animal present in the image.
For in vivo studies, maximal tumor growth inhibition (TGI) was calculated as the greatest treatment response using the following equation: Maximal TGI = (1 − mean tumor volume of the treated group/mean tumor volume of the vehicle control group) × 100. The tumor growth delay (TGD) percentage was determined as the percentage increase of the median time period for the treatment group to reach an arbitrary tumor volume of 1000 mm^3 relative to the vehicle control group. […] A power analysis was conducted using historical data to determine the number of animals required to yield significance of 0.05 at a 30% difference. There were no animals excluded. Data from experiments in vivo were analyzed using the student’s t-test for TGI values and the Mann–Whitney U test for TGD using Excel and GraphPad Prism. Fisher’s exact test was used to probe significance of differences in response frequency.

[2] = target: off-target receptors, ion channels, and transporters (Homo sapiens, UniProt P49336); assay: Off-target profiling (Supplementary Data 1); settings: TR-FRET Kinome; Invitrogen A-1167389.7 .025(Subs Conc)
[3] = target: off-target receptors, ion channels, and transporters (Homo sapiens, UniProt P24941); assay: Off-target profiling (Supplementary Data 1); settings: TR-FRET Kinome; Invitrogen A-1233106.2 .025(Subs Conc)
[4] = target: off-target receptors, ion channels, and transporters (Homo sapiens, UniProt Q12851); assay: Off-target profiling (Supplementary Data 1); settings: TR-FRET Kinome; Invitrogen A-1169612.6 .04(Subs Conc)
[5] = target: off-target receptors, ion channels, and transporters (Homo sapiens, UniProt P50750); assay: Off-target profiling (Supplementary Data 1); settings: TR-FRET Kinome; Invitrogen A-1180691.2 .01(Subs Conc)
[6] = target: off-target receptors, ion channels, and transporters (Homo sapiens, UniProt P23219); assay: Off-target profiling (Supplementary Data 1); settings: CEREP
[7] = target: off-target receptors, ion channels, and transporters (Homo sapiens, UniProt O14965); assay: Off-target profiling (Supplementary Data 1); settings: TR-FRET Kinome; Invitrogen A-1169612.6 .006(Subs Conc)
Chain of off-target receptors, ion channels, and transporters (Homo sapiens, UniProt O14965) (O14965 whole entry): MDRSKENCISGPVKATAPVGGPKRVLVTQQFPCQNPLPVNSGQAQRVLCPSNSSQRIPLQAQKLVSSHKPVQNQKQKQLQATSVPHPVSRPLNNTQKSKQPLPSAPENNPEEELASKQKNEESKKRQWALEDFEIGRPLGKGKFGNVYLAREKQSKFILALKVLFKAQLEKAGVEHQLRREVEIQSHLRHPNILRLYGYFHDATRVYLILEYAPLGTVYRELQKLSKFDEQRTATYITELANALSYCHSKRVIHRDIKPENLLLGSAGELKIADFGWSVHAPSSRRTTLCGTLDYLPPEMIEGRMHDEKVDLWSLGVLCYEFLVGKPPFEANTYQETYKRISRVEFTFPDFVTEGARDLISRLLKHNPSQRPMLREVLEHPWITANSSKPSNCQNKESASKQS

Chain of off-target receptors, ion channels, and transporters (Homo sapiens, UniProt P23219) (P23219 24-599): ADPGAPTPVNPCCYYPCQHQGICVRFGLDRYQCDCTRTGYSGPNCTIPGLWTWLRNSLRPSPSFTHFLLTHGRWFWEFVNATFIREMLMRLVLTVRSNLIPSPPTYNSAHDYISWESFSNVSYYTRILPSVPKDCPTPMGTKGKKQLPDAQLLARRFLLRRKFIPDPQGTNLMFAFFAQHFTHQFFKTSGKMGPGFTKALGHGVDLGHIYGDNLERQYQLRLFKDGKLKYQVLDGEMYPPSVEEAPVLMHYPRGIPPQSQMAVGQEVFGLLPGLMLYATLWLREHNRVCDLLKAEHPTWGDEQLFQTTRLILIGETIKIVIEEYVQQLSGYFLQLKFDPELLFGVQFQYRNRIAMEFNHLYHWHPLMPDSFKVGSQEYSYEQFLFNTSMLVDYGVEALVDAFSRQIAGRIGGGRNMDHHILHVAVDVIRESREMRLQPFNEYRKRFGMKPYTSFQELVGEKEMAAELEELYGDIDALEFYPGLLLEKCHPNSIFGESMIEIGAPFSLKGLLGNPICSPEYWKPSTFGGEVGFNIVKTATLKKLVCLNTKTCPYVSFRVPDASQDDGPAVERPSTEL
Chain of off-target receptors, ion channels, and transporters (Homo sapiens, UniProt P50750) (P50750 whole entry): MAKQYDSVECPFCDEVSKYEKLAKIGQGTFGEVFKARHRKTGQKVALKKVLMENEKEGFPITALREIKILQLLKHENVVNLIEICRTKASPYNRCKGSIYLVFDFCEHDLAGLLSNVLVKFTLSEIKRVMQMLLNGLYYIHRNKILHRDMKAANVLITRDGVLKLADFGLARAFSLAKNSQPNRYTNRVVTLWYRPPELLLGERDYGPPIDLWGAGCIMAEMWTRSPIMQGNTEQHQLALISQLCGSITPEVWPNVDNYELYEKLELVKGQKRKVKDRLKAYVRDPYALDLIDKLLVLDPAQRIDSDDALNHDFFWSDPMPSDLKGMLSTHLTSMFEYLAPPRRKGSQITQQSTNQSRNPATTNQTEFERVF
Chain of off-target receptors, ion channels, and transporters (Homo sapiens, UniProt P49336) (P49336 whole entry): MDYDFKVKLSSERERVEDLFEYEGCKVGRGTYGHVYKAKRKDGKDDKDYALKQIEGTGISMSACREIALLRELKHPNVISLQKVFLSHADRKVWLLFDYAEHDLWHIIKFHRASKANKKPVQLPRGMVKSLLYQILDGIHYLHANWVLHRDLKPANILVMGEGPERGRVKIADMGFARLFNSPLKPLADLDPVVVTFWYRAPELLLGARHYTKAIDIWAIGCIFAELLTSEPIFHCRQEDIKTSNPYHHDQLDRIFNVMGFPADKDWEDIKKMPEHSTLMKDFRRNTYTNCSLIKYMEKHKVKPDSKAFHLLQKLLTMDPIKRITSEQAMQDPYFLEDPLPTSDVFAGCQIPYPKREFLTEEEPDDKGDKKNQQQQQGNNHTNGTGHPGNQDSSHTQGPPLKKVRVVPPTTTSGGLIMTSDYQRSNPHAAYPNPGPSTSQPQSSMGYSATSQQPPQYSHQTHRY
Chain of off-target receptors, ion channels, and transporters (Homo sapiens, UniProt Q12851) (Q12851 whole entry): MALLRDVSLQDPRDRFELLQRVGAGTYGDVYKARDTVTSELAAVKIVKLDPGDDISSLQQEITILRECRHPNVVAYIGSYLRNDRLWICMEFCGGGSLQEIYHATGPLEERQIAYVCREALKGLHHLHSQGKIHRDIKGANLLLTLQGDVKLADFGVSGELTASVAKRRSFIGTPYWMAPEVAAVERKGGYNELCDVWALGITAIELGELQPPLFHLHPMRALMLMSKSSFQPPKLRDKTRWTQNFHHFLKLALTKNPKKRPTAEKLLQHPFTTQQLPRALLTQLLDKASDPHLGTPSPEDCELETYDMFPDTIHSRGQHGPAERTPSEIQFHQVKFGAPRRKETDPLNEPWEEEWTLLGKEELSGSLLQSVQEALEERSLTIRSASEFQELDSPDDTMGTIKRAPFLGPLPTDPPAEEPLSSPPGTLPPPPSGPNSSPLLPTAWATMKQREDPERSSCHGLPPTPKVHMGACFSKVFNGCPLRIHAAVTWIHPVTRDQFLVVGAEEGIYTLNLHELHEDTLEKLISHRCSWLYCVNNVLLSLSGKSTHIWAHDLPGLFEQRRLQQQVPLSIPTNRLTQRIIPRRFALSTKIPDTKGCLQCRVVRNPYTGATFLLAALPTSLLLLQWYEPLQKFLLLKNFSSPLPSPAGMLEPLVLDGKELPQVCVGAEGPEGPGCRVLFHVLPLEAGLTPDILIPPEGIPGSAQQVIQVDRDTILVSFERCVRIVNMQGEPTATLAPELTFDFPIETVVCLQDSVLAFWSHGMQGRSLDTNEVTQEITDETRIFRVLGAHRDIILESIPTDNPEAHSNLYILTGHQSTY

Cc1c(Cl)c2c(Cl)c(C)c1-c1c(-c3ccc(F)cc3)sc3ncnc(c13)O[C@@H](C(=O)O)Cc1cc(ccc1OCc1ccnc(-c3ccc(OC[C@H]4COCCO4)cc3)n1)OC[C@@H](CN1CCN(C)CC1)O2 [ABBV-467]
maximal TGD [1]: 82% | CDK8/Cyclin C - IC50 [2]: > 10 µM | cdk2 - IC50 [3]: > 10 µM | MAP4K2 - IC50 [4]: > 10 µM | CDK9/Cyclin K - IC50 [5]: 4.24 µM | COX1 Human (Enzymatic Assay) - IC50 [6]: 8.6 µM | Aurora2 - IC50 [7]: > 10 µM
